In patent US20250145665A1, “MACROCYCLIC PEPTIDES USEFUL AS MODULATORS OF TNF ALPHA” (Bristol-Myers Squibb Company, priority 2023, published 2025):
Starred links: 1 amine or outer side, 2 acyl side, 3 side chain; linkers in the order of their positions; H or OH if unused. Positions of bridges follow the written chain, without caps; N, C: chain ends. Non-standard residues stand in square brackets, D forms with d. Residues, ends and D or L forms follow the SMILES beside them. ξ: configuration not given here. Bip(4'-COOH) = N[C@@H](Cc1ccc(-c2ccc(C(=O)O)cc2)cc1)C(=O)O; Bip(4'-NHAc) = CC(=O)Nc1ccc(-c2ccc(C[C@H](N)C(=O)O)cc2)cc1; Phe(3-CH2NH2) = O=C([C@H](Cc1cccc(CN[*:3])c1)N[*:1])[*:2]; Ala(morpholin-4-yl) = N[C@@H](CN1CCOCC1)C(=O)O; Phe(3-CONH2) = NC(=O)c1cccc(C[C@H](N)C(=O)O)c1; Bip = N[C@@H](Cc1ccc(-c2ccccc2)cc1)C(=O)O; Phe(2-Me) = Cc1ccccc1C[C@H](N)C(=O)O; 2Pal = N[C@@H](Cc1ccccn1)C(=O)O; 2Thi = N[C@@H](Cc1cccs1)C(=O)O; Cha = N[C@@H](CC1CCCCC1)C(=O)O; Tle = CC(C)(C)[C@H](N)C(=O)O; ξIle = CC[C@H](C)C(N)C(=O)O; Aze = O=C(O)[C@@H]1CCN1; Sar = CNCC(=O)O

Molecular target: TNFα (Homo sapiens, UniProt P01375)
Sequence (P01375 77-233 limits assumed): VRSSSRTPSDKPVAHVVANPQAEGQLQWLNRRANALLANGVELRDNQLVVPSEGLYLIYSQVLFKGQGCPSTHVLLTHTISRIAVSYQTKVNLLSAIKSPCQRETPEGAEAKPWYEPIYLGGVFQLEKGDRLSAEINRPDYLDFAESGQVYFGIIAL
Assay: TNF-Induced HEK-Blue Assay
Format: cell-based
Details: HEK-Blue-CD40L cells, NF-kB-driven secreted alkaline phosphatase reporter; TNFα 0.5 ng/ml; 18 h; read-out: TNF induced HEK-Blue assay IC50 value

CC(=O)Nc1ccc(-c2ccc(C[C@@H]3NC(=O)[C@H](Cc4ccc(-c5ccc(C(=O)O)cc5)cc4)NC(=O)[C@H](CC4CCCCC4)NC(=O)CSC[C@@H](C(=O)NCC(N)=O)NC(=O)[C@H](CC(C)C)NC(=O)[C@H](Cc4cccc(C(N)=O)c4)NC(=O)[C@H](C(C)C)NC(=O)[C@@H]4CCCN4C(=O)[C@H](C(C)C)NC(=O)[C@@H](CCCNC(=N)N)NC(=O)[C@H](CC(=O)O)NC(=O)[C@H](Cc4ccccn4)NC(=O)CN(C)C3=O)cc2)cc1 [Example 251] ({CH2CO}-[Cha][Bip(4'-COOH)][Bip(4'-NHAc)][Sar][2Pal]D[dR]VPV[Phe(3-CONH2)]LCG-NH2; thioether N-13)
IC50: < 50 nM

CC(=O)Nc1ccc(-c2ccc(C[C@@H]3NC(=O)[C@H](Cc4ccc(-c5ccc(C(=O)O)cc5)cc4)NC(=O)[C@H](CC4CCCCC4)NC(=O)CSC[C@@H](C(=O)NCC(N)=O)NC(=O)[C@H](CC(C)C)NC(=O)[C@H](Cc4cccc(C(N)=O)c4)NC(=O)[C@H](C(C)C)NC(=O)[C@@H]4CCCN4C(=O)[C@H](C(C)C)NC(=O)[C@@H](CCCNC(=N)N)NC(=O)[C@H](CC(=O)O)NC(=O)[C@H](Cc4ccc(O)cc4)NC(=O)CN(C)C3=O)cc2)cc1 [Example 252] ({CH2CO}-[Cha][Bip(4'-COOH)][Bip(4'-NHAc)][Sar]YD[dR]VPV[Phe(3-CONH2)]LCG-NH2; thioether N-13)
IC50: < 50 nM

CC(=O)Nc1ccc(-c2ccc(C[C@@H]3NC(=O)[C@H](Cc4ccc(-c5ccccc5)cc4)NC(=O)[C@H](CC4CCCCC4)NC(=O)CSC[C@@H](C(=O)NCC(N)=O)NC(=O)[C@H](CC(C)C)NC(=O)[C@H](Cc4cnc[nH]4)NC(=O)[C@H](C(C)C)NC(=O)[C@@H]4CCCN4C(=O)[C@H](CC(N)=O)NC(=O)[C@@H](CCCNC(=N)N)NC(=O)[C@H](CC(=O)O)NC(=O)[C@@H]4CCCN4C(=O)CN(C)C3=O)cc2)cc1 [Example 253] ({CH2CO}-[Cha][Bip][Bip(4'-NHAc)][Sar]PD[dR]NPVHLCG-NH2; thioether N-13)
IC50: 50 to 200 nM

CC(=O)Nc1ccc(-c2ccc(C[C@@H]3NC(=O)[C@H](Cc4ccc(-c5ccc(C(=O)O)cc5)cc4)NC(=O)[C@H](CC4CCCCC4)NC(=O)CSC[C@@H](C(=O)NCC(N)=O)NC(=O)[C@H](CC(C)C)NC(=O)[C@H](Cc4cccc(CN)c4)NC(=O)[C@H](C(C)C)NC(=O)[C@@H]4CCCN4C(=O)[C@H](C(C)C)NC(=O)[C@@H](CCCNC(=N)N)NC(=O)[C@H](CC(=O)O)NC(=O)[C@@H]4CCCN4C(=O)CN(C)C3=O)cc2)cc1 [Example 254] ({CH2CO}-[Cha][Bip(4'-COOH)][Bip(4'-NHAc)][Sar]PD[dR]VPV[Phe(3-CH2NH2)]LCG-NH2; thioether N-13)
IC50: 200 to 2000 nM

CC(=O)Nc1ccc(-c2ccc(C[C@@H]3NC(=O)[C@H](Cc4ccc(-c5ccc(C(=O)O)cc5)cc4)NC(=O)[C@H](CC4CCCCC4)NC(=O)CSC[C@@H](C(=O)NCC(N)=O)NC(=O)[C@H](CC(C)C)NC(=O)[C@H](Cc4ccccc4C)NC(=O)[C@H](C(C)C)NC(=O)[C@@H]4CCCN4C(=O)[C@H](C(C)C)NC(=O)[C@@H](CCCNC(=N)N)NC(=O)[C@H](CC(=O)O)NC(=O)[C@@H]4CCCN4C(=O)CN(C)C3=O)cc2)cc1 [Example 255] ({CH2CO}-[Cha][Bip(4'-COOH)][Bip(4'-NHAc)][Sar]PD[dR]VPV[Phe(2-Me)]LCG-NH2; thioether N-13)
IC50: 50 to 200 nM

CC[C@H](C)[C@@H]1NC(=O)[C@@H](CCCNC(=N)N)NC(=O)[C@H](CC(=O)O)NC(=O)[C@@H]2CCCN2C(=O)CN(C)C(=O)[C@H](Cc2ccc(-c3ccc(NC(C)=O)cc3)cc2)NC(=O)[C@H](Cc2ccc(-c3ccc(C(=O)O)cc3)cc2)NC(=O)[C@H](CC2CCCCC2)NC(=O)CSC[C@@H](C(=O)NCC(N)=O)NC(=O)[C@H](CC(C)C)NC(=O)[C@H](Cc2ccc(O)cc2)NC(=O)[C@H](C(C)C)NC(=O)[C@@H]2CCCN2C1=O [Example 256] ({CH2CO}-[Cha][Bip(4'-COOH)][Bip(4'-NHAc)][Sar]PD[dR]IPVYLCG-NH2; thioether N-13)
IC50: 50 to 200 nM

CC[C@H](C)[C@@H]1NC(=O)[C@@H](CCCNC(=N)N)NC(=O)[C@H](CC(=O)O)NC(=O)[C@H](Cc2cnc[nH]2)NC(=O)CN(C)C(=O)[C@H](Cc2ccc(-c3ccc(NC(C)=O)cc3)cc2)NC(=O)[C@H](Cc2ccc(-c3ccc(C(=O)O)cc3)cc2)NC(=O)[C@H](CC2CCCCC2)NC(=O)CSC[C@@H](C(=O)NCC(N)=O)NC(=O)[C@H](CC(C)C)NC(=O)[C@H](Cc2cnc[nH]2)NC(=O)[C@H](C(C)C)NC(=O)[C@@H]2CCCN2C1=O [Example 257] ({CH2CO}-[Cha][Bip(4'-COOH)][Bip(4'-NHAc)][Sar]HD[dR]IPVHLCG-NH2; thioether N-13)
IC50: < 50 nM

CC[C@H](C)C1NC(=O)[C@@H](CCCNC(=N)N)NC(=O)[C@H](CC(=O)O)NC(=O)[C@H](Cc2ccc(O)cc2)NC(=O)CN(C)C(=O)[C@H](Cc2ccc(-c3ccc(NC(C)=O)cc3)cc2)NC(=O)[C@H](Cc2ccc(-c3ccccc3)cc2)NC(=O)[C@H](CN2CCOCC2)NC(=O)CSC[C@@H](C(=O)NCC(N)=O)NC(=O)[C@H](CC(C)C)NC(=O)[C@H](Cc2cccs2)NC(=O)[C@H](C(C)C)NC(=O)[C@@H]2CCCN2C1=O (stereo partly shown) [Example 258] ({CH2CO}-[Ala(morpholin-4-yl)][Bip][Bip(4'-NHAc)][Sar]YD[dR][ξIle]PV[2Thi]LCG-NH2; thioether N-13)
IC50: 50 to 200 nM

CC(=O)Nc1ccc(-c2ccc(C[C@@H]3NC(=O)[C@H](Cc4ccc(-c5ccccc5)cc4)NC(=O)[C@H](C(C)(C)C)NC(=O)CSC[C@@H](C(=O)NCC(N)=O)NC(=O)[C@H](CC(C)C)NC(=O)[C@H](Cc4cccs4)NC(=O)[C@H](C(C)C)NC(=O)[C@@H]4CCCN4C(=O)[C@H](C(C)C)NC(=O)[C@@H](CCCNC(=N)N)NC(=O)[C@H](CC(=O)O)NC(=O)[C@H](Cc4ccc(O)cc4)NC(=O)CN(C)C3=O)cc2)cc1 [Example 259] ({CH2CO}-[Tle][Bip][Bip(4'-NHAc)][Sar]YD[dR]VPV[2Thi]LCG-NH2; thioether N-13)
IC50: < 50 nM

CC[C@H](C)[C@@H]1NC(=O)[C@@H](CCCNC(=N)N)NC(=O)[C@H](CC(=O)O)NC(=O)[C@H](Cc2ccc(O)cc2)NC(=O)CN(C)C(=O)[C@H](Cc2ccc(-c3ccc(NC(C)=O)cc3)cc2)NC(=O)[C@H](Cc2ccc(-c3ccccc3)cc2)NC(=O)[C@H](C(C)(C)C)NC(=O)CSC[C@@H](C(=O)NCC(N)=O)NC(=O)[C@H](CC(C)C)NC(=O)[C@H](Cc2cccs2)NC(=O)[C@H](C(C)C)NC(=O)[C@@H]2CCCN2C1=O [Example 260] ({CH2CO}-[Tle][Bip][Bip(4'-NHAc)][Sar]YD[dR]IPV[2Thi]LCG-NH2; thioether N-13)
IC50: < 50 nM

CC(=O)Nc1ccc(-c2ccc(C[C@@H]3NC(=O)[C@H](Cc4ccc(-c5ccc(C(=O)O)cc5)cc4)NC(=O)[C@H](C(C)(C)C)NC(=O)CSC[C@@H](C(=O)NCC(N)=O)NC(=O)[C@H](CC(C)C)NC(=O)[C@H](Cc4cnc[nH]4)NC(=O)[C@H](C(C)C)NC(=O)[C@@H]4CCCN4C(=O)[C@H](C(C)C)NC(=O)[C@@H](CCCNC(=N)N)NC(=O)[C@H](CC(=O)O)NC(=O)[C@H](Cc4ccccc4)NC(=O)CN(C)C3=O)cc2)cc1 [Example 261] ({CH2CO}-[Tle][Bip(4'-COOH)][Bip(4'-NHAc)][Sar]FD[dR]VPVHLCG-NH2; thioether N-13)
IC50: < 50 nM

CC[C@H](C)[C@@H]1NC(=O)[C@@H](CCCNC(=N)N)NC(=O)[C@H](CC(=O)O)NC(=O)[C@H](Cc2ccccn2)NC(=O)CN(C)C(=O)[C@H](Cc2ccc(-c3ccc(NC(C)=O)cc3)cc2)NC(=O)[C@H](Cc2ccc(-c3ccccc3)cc2)NC(=O)[C@H](C(C)(C)C)NC(=O)CSC[C@@H](C(=O)NCC(N)=O)NC(=O)[C@H](CC(C)C)NC(=O)[C@H](Cc2cccc(C(N)=O)c2)NC(=O)[C@H](C(C)C)NC(=O)[C@@H]2CCCN2C1=O [Example 262] ({CH2CO}-[Tle][Bip][Bip(4'-NHAc)][Sar][2Pal]D[dR]IPV[Phe(3-CONH2)]LCG-NH2; thioether N-13)
IC50: 50 to 200 nM

CC(=O)Nc1ccc(-c2ccc(C[C@@H]3NC(=O)[C@H](Cc4ccc(-c5ccccc5)cc4)NC(=O)[C@H](C(C)(C)C)NC(=O)CSC[C@@H](C(=O)NCC(N)=O)NC(=O)[C@H](CC(C)C)NC(=O)[C@H](Cc4ccccc4)NC(=O)[C@H](C(C)C)NC(=O)[C@@H]4CCCN4C(=O)[C@H](C(C)C)NC(=O)[C@@H](CCCNC(=N)N)NC(=O)[C@H](CC(=O)O)NC(=O)[C@H](Cc4ccc(O)cc4)NC(=O)CN(C)C3=O)cc2)cc1 [Example 263] ({CH2CO}-[Tle][Bip][Bip(4'-NHAc)][Sar]YD[dR]VPVFLCG-NH2; thioether N-13)
IC50: 50 to 200 nM

CC[C@H](C)[C@@H]1NC(=O)[C@@H](CCCNC(=N)N)NC(=O)[C@H](CC(=O)O)NC(=O)[C@H](Cc2ccc(O)cc2)NC(=O)CN(C)C(=O)[C@H](Cc2ccc(-c3ccc(NC(C)=O)cc3)cc2)NC(=O)[C@H](Cc2ccc(-c3ccccc3)cc2)NC(=O)[C@H](C(C)(C)C)NC(=O)CSC[C@@H](C(=O)NCC(N)=O)NC(=O)[C@H](CC(C)C)NC(=O)[C@H](Cc2ccccc2)NC(=O)[C@H](C(C)C)NC(=O)[C@@H]2CCCN2C1=O [Example 264] ({CH2CO}-[Tle][Bip][Bip(4'-NHAc)][Sar]YD[dR]IPVFLCG-NH2; thioether N-13)
IC50: 50 to 200 nM

CC(=O)Nc1ccc(-c2ccc(C[C@@H]3NC(=O)[C@H](Cc4ccc(-c5ccc(C(=O)O)cc5)cc4)NC(=O)[C@H](C(C)(C)C)NC(=O)CSC[C@@H](C(=O)NCC(N)=O)NC(=O)[C@H](CC(C)C)NC(=O)[C@H](Cc4ccc(O)cc4)NC(=O)[C@H](C(C)C)NC(=O)[C@@H]4CCCN4C(=O)[C@H](C(C)C)NC(=O)[C@@H](CCCNC(=N)N)NC(=O)[C@H](CC(=O)O)NC(=O)[C@@H]4CCCN4C(=O)CN(C)C3=O)cc2)cc1 [Example 265] ({CH2CO}-[Tle][Bip(4'-COOH)][Bip(4'-NHAc)][Sar]PD[dR]VPVYLCG-NH2; thioether N-13)
IC50: 50 to 200 nM

CC(=O)Nc1ccc(-c2ccc(C[C@@H]3NC(=O)[C@H](Cc4ccc(-c5ccc(C(=O)O)cc5)cc4)NC(=O)[C@H](C(C)(C)C)NC(=O)CSC[C@@H](C(=O)NCC(N)=O)NC(=O)[C@H](CC(C)C)NC(=O)[C@H](Cc4ccc(O)cc4)NC(=O)[C@H](C(C)C)NC(=O)[C@@H]4CCN4C(=O)[C@H](C(C)C)NC(=O)[C@@H](CCCNC(=N)N)NC(=O)[C@H](CC(=O)O)NC(=O)[C@@H]4CCCN4C(=O)CN(C)C3=O)cc2)cc1 [Example 266] ({CH2CO}-[Tle][Bip(4'-COOH)][Bip(4'-NHAc)][Sar]PD[dR]V[Aze]VYLCG-NH2; thioether N-13)
IC50: 50 to 200 nM
